Results on 23 compounds are retold here after paper PMC12155096 (International Journal of Molecular Sciences, 2025).

Data set [1] deals with T1, human CYP1A2 (Homo sapiens, UniProt P05177).
T1 sequence (P05177 1-516): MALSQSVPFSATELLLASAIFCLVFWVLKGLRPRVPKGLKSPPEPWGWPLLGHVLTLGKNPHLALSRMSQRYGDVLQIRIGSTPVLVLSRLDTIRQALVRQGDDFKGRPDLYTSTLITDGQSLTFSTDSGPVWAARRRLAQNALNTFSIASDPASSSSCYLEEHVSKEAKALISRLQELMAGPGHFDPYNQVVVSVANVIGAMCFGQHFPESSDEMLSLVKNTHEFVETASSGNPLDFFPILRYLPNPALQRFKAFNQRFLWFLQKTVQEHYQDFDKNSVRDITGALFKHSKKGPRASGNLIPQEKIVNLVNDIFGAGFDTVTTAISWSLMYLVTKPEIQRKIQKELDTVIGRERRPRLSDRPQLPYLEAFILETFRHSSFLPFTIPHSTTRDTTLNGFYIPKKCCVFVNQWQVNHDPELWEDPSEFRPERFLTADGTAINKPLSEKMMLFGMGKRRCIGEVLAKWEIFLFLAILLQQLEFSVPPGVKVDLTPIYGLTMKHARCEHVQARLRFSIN

The target of data set [2] is T2, human CYP2C9 (Homo sapiens, UniProt P11712).
In data set [3] the target is T3, human CYP2C19 (Homo sapiens, UniProt P33261).
The target of data set [4] is CYP3A4 (Homo sapiens, UniProt P08684).
For data set [5], the target named is human CYP2D6 (Homo sapiens, UniProt P10635).
Data set [6] deals with T2, human CYP2C9. The data set can be described thus: biochemical.
Data set [7] addresses T3, human CYP2C19. Description: biochemical. As to conditions: CYP2C19 AC50 (half-maximal activity concentration).
Setting [8] is: CYP2C9 AC50 (half-maximal activity concentration).

Where two headings read alike, the source gives them in different places.

CYP3A4, sequence (P08684 whole entry): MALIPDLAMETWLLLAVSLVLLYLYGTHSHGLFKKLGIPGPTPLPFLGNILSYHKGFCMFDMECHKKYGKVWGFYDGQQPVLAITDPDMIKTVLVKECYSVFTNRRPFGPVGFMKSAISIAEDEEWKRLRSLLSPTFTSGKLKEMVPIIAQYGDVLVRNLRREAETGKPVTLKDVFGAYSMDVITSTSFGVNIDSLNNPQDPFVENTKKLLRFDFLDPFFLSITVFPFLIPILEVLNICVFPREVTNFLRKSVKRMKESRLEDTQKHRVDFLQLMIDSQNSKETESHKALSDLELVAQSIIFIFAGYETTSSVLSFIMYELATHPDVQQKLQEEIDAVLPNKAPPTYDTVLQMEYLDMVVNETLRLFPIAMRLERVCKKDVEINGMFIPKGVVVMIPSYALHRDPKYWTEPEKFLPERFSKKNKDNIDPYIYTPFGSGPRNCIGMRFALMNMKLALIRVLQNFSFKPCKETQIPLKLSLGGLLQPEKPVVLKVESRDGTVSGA
human CYP2D6, sequence (P10635 whole entry): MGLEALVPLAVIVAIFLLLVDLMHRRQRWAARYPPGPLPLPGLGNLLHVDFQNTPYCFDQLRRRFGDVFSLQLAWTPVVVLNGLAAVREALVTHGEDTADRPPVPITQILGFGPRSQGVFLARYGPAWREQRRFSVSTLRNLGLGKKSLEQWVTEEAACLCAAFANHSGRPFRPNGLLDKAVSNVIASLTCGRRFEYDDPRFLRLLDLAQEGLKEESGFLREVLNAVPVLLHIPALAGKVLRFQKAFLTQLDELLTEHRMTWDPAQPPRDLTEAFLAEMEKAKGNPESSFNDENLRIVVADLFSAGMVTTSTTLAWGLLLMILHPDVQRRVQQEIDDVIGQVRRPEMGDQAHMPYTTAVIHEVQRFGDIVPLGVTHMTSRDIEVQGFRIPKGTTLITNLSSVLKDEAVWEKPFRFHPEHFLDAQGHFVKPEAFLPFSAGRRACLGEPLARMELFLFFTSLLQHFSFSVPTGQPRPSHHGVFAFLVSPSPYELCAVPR
T2 sequence (P11712 whole entry): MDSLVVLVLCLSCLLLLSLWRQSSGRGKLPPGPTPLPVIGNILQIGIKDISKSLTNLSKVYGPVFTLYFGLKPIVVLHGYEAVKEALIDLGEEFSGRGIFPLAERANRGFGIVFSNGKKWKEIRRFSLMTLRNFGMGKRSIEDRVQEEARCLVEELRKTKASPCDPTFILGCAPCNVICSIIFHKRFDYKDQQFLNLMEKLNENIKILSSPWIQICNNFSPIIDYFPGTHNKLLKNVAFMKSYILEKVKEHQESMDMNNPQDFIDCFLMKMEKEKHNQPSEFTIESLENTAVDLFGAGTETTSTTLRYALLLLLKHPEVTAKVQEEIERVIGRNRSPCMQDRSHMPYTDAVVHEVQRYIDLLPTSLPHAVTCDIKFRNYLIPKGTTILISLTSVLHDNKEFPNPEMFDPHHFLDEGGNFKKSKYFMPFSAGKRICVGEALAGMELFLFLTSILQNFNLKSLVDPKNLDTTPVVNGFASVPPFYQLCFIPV
T3 sequence (P33261 whole entry): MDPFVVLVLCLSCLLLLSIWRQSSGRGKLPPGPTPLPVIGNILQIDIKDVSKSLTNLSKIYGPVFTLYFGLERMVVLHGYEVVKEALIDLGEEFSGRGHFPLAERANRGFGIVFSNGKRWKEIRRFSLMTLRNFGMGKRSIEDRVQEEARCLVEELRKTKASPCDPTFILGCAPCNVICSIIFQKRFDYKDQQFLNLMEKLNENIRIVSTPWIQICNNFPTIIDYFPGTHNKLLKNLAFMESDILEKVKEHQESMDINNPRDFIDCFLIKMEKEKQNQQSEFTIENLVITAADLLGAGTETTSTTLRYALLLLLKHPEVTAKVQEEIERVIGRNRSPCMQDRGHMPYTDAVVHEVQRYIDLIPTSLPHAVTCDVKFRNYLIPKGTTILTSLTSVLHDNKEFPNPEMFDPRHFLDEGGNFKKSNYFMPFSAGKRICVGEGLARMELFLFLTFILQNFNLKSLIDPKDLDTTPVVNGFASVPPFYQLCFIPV

The AC50 is the midpoint of the concentration-response curve, whichever way the signal moves. Lower therefore signals activity at low concentration. Take `CC(C)(C)C(=O)C=Cc1ccc(Cl)cc1`: the AC50 in data set [1] came out at 21.2 µM; in data set [2], 54 µM; in data set [3] it was 6.98 µM; in data set [4], 20 µM. In addition, the “CYP2D6 AC50 (half-maximal activity concentration)” value (“CYP2D6 AC50” below) in data set [5] is listed as “Inactive”.

On to `CC(=O)c1cc(C(C)(C)C)cc2c1CCC2(C)C`, for which the figures for the AC50 in data set [1], in data set [2] and in data set [4] were 34.4 µM, 27.6 µM and 10.5 µM, respectively. Besides, the “CYP2C19 AC50 (half-maximal activity concentration)” value (shortened to “CYP2C19 AC50”) in data set [3] is recorded as “Inconclusive”. Further, in data set [5], the “CYP2D6 AC50” value was “Inactive”.

On to `Cl.O.c1cnc2c(c1)ccc1cccnc12`, for which the AC50 is 10.6 µM in data set [1]; 4.59 µM in data set [2]; 8.94 µM in data set [3]; 38.5 µM in data set [4]; 38.5 µM in data set [5].

For `Clc1cnc(Oc2ccc(Oc3ncc(Cl)cc3Cl)cc2)c(Cl)c1`, the “CYP1A2 AC50 (half-maximal activity concentration)” value (“CYP1A2 AC50” below) in data set [1] is “Inactive”. Further, the AC50 in data set [2] was 2.34 µM. Besides, in data set [3], the “CYP2C19 AC50” value was “Inactive”. Moreover, the “CYP3A4 AC50 (half-maximal activity concentration)” value (“CYP3A4 AC50” for short) in data set [4] is given as “Inconclusive activator”. Further, the “CYP2D6 AC50” value in data set [5] was “Inactive”.

As for `C1CC(COCC2CO2)CCC1COCC1CO1` (stereo not shown), in data set [1], the “CYP1A2 AC50” value is listed as “Inconclusive inhibitor”. In addition, the AC50 in data set [2] worked out at 56.6 µM; in data set [4], 73.9 µM. Also, the “CYP2C19 AC50” value in data set [3] was “Inconclusive inhibitor”. Moreover, the “CYP2D6 AC50” value in data set [5] is reported as “Inactive”.

Turning to `CC(C)(C)C1=CC(=O)C(C(C)(C)C)=CC1=O`, the AC50 in data set [1] was 16.1 µM; in data set [2] it was 20.8 µM; in data set [3], 7.8 µM; in data set [4], 6.47 µM. Further, the “CYP2D6 AC50” value in data set [5] is recorded as “Inconclusive inhibitor”.

`O=S1(=O)CC(Cl)(Cl)C(Cl)(Cl)C1`: the AC50 was determined as 31.2 µM in data set [1]; 27.5 µM in data set [2]; 60.4 µM in data set [3]; 30.8 µM in data set [4]; 48.8 µM in data set [5].

`CC(C)(c1ccc(Oc2ccc3c(c2)C(=O)OC3=O)cc1)c1ccc(Oc2ccc3c(c2)C(=O)OC3=O)cc1`: the results for the AC50 in data set [1], in data set [4] and in data set [5] were 63.2 µM, 23.4 µM and 37.9 µM, respectively. Further, the “CYP2C9 AC50 (half-maximal activity concentration)” value (“CYP2C9 AC50” below) in data set [2] is recorded as “Inconclusive inhibitor”. Also, the “CYP2C19 AC50” value in data set [3] is reported as “Inconclusive inhibitor”.

With `Cl.Nc1c2ccccc2nc2ccccc12.O`, the results for the AC50 in data set [1], in data set [2] and in data set [5] were 2.13 µM, 28.8 µM and 12.9 µM, respectively. The “CYP2C19 AC50” value in data set [3] is given as “Inconclusive activator”. In addition, in data set [4], the “CYP3A4 AC50” value is listed as “Inactive”.

On to `CCCCCCCCCCCCCC[N+](C)(C)Cc1ccccc1.O.O.[Cl-]`, for which the “CYP1A2 AC50” value in data set [1] is listed as “Inactive”. For the same compound, the values for the AC50 in data set [2], in data set [4] and in data set [5] were 40.7 µM, 11.3 µM and 2.01 µM, respectively. Also, the “CYP2C19 AC50” value in data set [3] was “Inactive”.

As to `CCCOC(=O)c1c(Cl)c(Cl)c(Cl)c(Cl)c1C(=O)OCCC`, the half-maximal activity concentration (AC50) turned out to be 1.72 µM in data set [1], 20.1 µM in data set [2], 12.5 µM in data set [3] and 2.63 µM in data set [4]. The “CYP2D6 AC50” value in data set [5] is “Inconclusive inhibitor”.

Regarding `CCOC(=O)CC(=O)Cc1cc(F)c(Cl)nc1Cl`, the AC50 in data set [1] was found to be 65.1 µM; in data set [2], 46.3 µM; in data set [4] it was 49.1 µM. Also, the “CYP2C19 AC50” value in data set [3] is recorded as “Inconclusive inhibitor”. Further, the “CYP2D6 AC50” value in data set [5] was “Inactive”.

Turning to `CCOC(=O)N1CCC(n2c(=O)[nH]c3cc(Cl)ccc32)CC1`, the AC50 amounted to 22.6 µM in data set [1], 9.24 µM in data set [2], 16.6 µM in data set [3] and 6.72 µM in data set [4]. In data set [5], the “CYP2D6 AC50” value is given as “Inactive”.

As to `C=C(C)C(=O)OCCOc1ccccc1`, the AC50 stood at 24.5 µM in data set [1], 38.6 µM in data set [2], 28.6 µM in data set [3] and 19.8 µM in data set [4]. The “CYP2D6 AC50” value in data set [5] is “Inactive”.

For the compound `C=C(C)C(=O)OCC[N+](C)(C)C.[Cl-]`, the figures for the AC50 in data set [1] and in data set [4] were 10.5 µM and 23.4 µM, respectively. Besides, in data set [2], the “CYP2C9 AC50” value is on record as “Inactive”. In data set [3], the “CYP2C19 AC50” value was “Inactive”. Moreover, in data set [5], the “CYP2D6 AC50” value is recorded as “Inactive”.

`CC1=Nc2ccc3ccccc3c2C1(C)C` [1,1,2-Trimethyl-1H-benzo[e]indole]: the AC50 is 26.7 µM in data set [1]; 51.7 µM in data set [2]; 10.1 µM in data set [3]; 2.84 µM in data set [4]; 54 µM in data set [5].

In the case of `c1ccc(SCCSc2ccccc2)cc1` [1,2-Bis(phenylthio)ethane], the AC50 in data set [1] turned out to be 29.2 µM; in data set [2], 31.4 µM; in data set [3], 3.06 µM; in data set [4] it was 8.36 µM; in data set [5] it was 56.1 µM.

With `O=C(O)c1ccc(OCCCOc2ccc(C(=O)O)cc2)cc1` [1,3-Bis(4-carboxyphenoxy)propane], in data set [1], the “CYP1A2 AC50” value was “Inactive”. Also, in data set [2], the “CYP2C9 AC50” value was “Inactive”. Moreover, the “CYP2C19 AC50” value in data set [3] was “Inactive”. Besides, the AC50 in data set [4] turned out to be 26.4 µM; in data set [5], 8.08 µM.

For `O=S(=O)(c1ccc(O)cc1)c1ccc(O)cc1` [4,4'-Sulfonyldiphenol], the “CYP1A2 AC50” value in data set [1] is given as “Inconclusive inhibitor”. The AC50 in data set [6] (setting [8]) is 1.34 µM; in data set [7], 16.4 µM. Moreover, in data set [4], the “CYP3A4 AC50” value is given as “Inactive”. Moreover, the “CYP2D6 AC50” value in data set [5] is “Inactive”.

With `NS(=O)(=O)c1cc2c(cc1Cl)CN(C1CCCCC1)C2=O` [Chlorexolone], in data set [1], the “CYP1A2 AC50” value is on record as “Inactive”. This compound also came in with an AC50 in data set [6] (setting [8]) of 14.4 µM. Further, in data set [3], the “CYP2C19 AC50” value is “Inconclusive activator”. Besides, the “CYP3A4 AC50” value in data set [4] was “Inactive”. The “CYP2D6 AC50” value in data set [5] is recorded as “Inactive”.

For `Cc1cc2c(cc1S(N)(=O)=O)S(=O)(=O)CCC2` [Meticrane], the “CYP1A2 AC50” value in data set [1] was “Inactive”. Moreover, the AC50 in data set [6] is 8.15 ± 1.47 µM. For the same compound, the “CYP2C19 AC50” value in data set [3] was “Inactive”. The “CYP3A4 AC50” value in data set [4] is “Inactive”. Besides, the “CYP2D6 AC50” value in data set [5] is reported as “Inactive”.

Turning to `CCC(=O)c1ccc(O)cc1` [Paroxypropione], the “CYP1A2 AC50” value in data set [1] is recorded as “Inconclusive inhibitor”. The AC50 in data set [6] (setting [8]) amounted to 15.6 µM. Further, in data set [3], the “CYP2C19 AC50” value is given as “Inactive”. In addition, the “CYP3A4 AC50” value in data set [4] is listed as “Inactive”. Also, the “CYP2D6 AC50” value in data set [5] is recorded as “Inactive”.

For the compound `Cc1cc(C)nc(NS(=O)(=O)c2ccc(N)cc2)n1` [Sulfamethazine], the “CYP1A2 AC50” value in data set [1] is “Inconclusive inhibitor”. The same compound came in with an AC50 in data set [6] (setting [8]) of 54.8 µM. In addition, in data set [3], the “CYP2C19 AC50” value was “Inactive”. The “CYP3A4 AC50” value in data set [4] is given as “Inactive”. In data set [5], the “CYP2D6 AC50” value is reported as “Inactive”.
